Assay results reported in PubChem BioAssay (NCI).
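96-well plates; 48 h exposure; 5 concentrations. Endpoints by linear interpolation between flanking doses. Not reached: highest tested concentration assigned. GI50 marks 50% less growth. TGI is the concentration that stops growth completely.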

Key:
Experiment in all cases: NCI anticancer screen, dose series, 48 h
[1] = test system: A549 NSCLC
[2] = test system: HCC-2998 colon
[3] = test system: HCT-116 colon
[4] = test system: LOX IMVI melanoma
[5] = test system: MALME-3M melanoma
[6] = test system: NCI-H23 lung
[7] = test system: SK-OV-3 ovarian
[8] = test system: SW-620 colon
[9] = test system: U251 CNS
[10] = test system: UACC-257 melanoma

With `COc1ccc(C(=C(I)c2ccccc2)c2ccc(OC)cc2)cc1` the TGI [1] was > 100 µM, the TGI [2] was > 100 µM and the TGI [3] was > 100 µM. For the same compound, the TGI [4] was > 100 µM, the TGI [5] was > 100 µM and the TGI [6] was > 100 µM. For the same compound, the TGI [7] was > 100 µM, the TGI [8] was > 100 µM and the TGI [9] was > 100 µM. For the same compound, the TGI [10] was > 100 µM.
Compound `CCOC(=O)c1c2c(n(-c3ccc(OC)cc3)c1C)C(=O)C(=O)c1ccccc1-2` has a TGI [1] of 4.46 µM, a TGI [2] of 3.38 µM and a TGI [3] of 3 µM. For the same compound, the TGI [4] was 2.49 µM, the TGI [5] was 0.605 µM and the TGI [6] was 3.24 µM. For the same compound, the TGI [7] was 6.03 µM, the TGI [8] was 8.09 µM and the TGI [9] was 2.63 µM. For the same compound, the TGI [10] was 1.11 µM.
With `COc1cc(/C=C2\N=C(c3ccccc3)N(/N=C3\C(=O)Nc4ccccc43)C2=O)cc(OC)c1OC` the TGI [1] was > 100 µM, the TGI [2] was > 100 µM and the TGI [3] was > 100 µM. For the same compound, the TGI [4] was > 100 µM, the TGI [5] was > 100 µM and the TGI [6] was > 100 µM. For the same compound, the TGI [7] was > 100 µM, the TGI [8] was > 100 µM and the TGI [9] was > 100 µM. For the same compound, the TGI [10] was > 100 µM.
`O=C(c1ccccc1)c1c(C(F)(F)F)n([O-])c2cc(Cl)c(Cl)cc2[n+]1=O` gave a TGI [1] of 4.19 µM, a TGI [2] of 4.11 µM and a TGI [3] of 0.989 µM. It also gave a TGI [4] of 2.46 µM, a TGI [5] of 5.33 µM and a TGI [6] of 1.11 µM. It also gave a TGI [7] of 8.99 µM, a TGI [8] of 6.72 µM and a TGI [9] of 2.71 µM. The TGI [10] was 1.97 µM.
With `COC(=O)c1ccccc1C#CCCCOS(C)(=O)=O` the TGI [1] was > 10 µM, the TGI [2] was > 10 µM and the TGI [3] was > 10 µM. For the same compound, the TGI [4] was > 10 µM, the TGI [5] was > 10 µM and the TGI [6] was > 10 µM. The TGI [7] was > 10 µM, the TGI [8] was > 10 µM and the TGI [9] was > 10 µM. For the same compound, the TGI [10] was > 10 µM.
`COc1cccc2c1C1(O)C2CCCC12OCCCO2` (configuration not stated) was tested, and the TGI [1] was > 100 µM, the TGI [2] was > 100 µM and the TGI [3] was > 100 µM. The TGI [4] was > 100 µM, the TGI [5] was > 100 µM and the TGI [6] was > 100 µM. For the same compound, the TGI [7] was > 100 µM, the TGI [8] was > 100 µM and the TGI [9] was > 100 µM. The TGI [10] was > 100 µM.
`O=C1C=C2CO[C@H]3OC[C@H](O)[C@@H]1[C@@H]23` was tested, and the TGI [1] was > 100 µM, the TGI [2] was > 100 µM and the TGI [3] was > 100 µM. The TGI [4] was > 100 µM, the TGI [5] was 55 µM and the TGI [6] was > 100 µM. For the same compound, the TGI [7] was > 100 µM, the TGI [8] was > 100 µM and the TGI [9] was 63.6 µM. For the same compound, the TGI [10] was 86.4 µM.
`S=C1C(=Nc2ccccc2)N(c2ccccc2)/C(=N\c2ccccn2)N1c1ccccc1` was tested, and the TGI [1] was 38.6 µM, the TGI [2] was 27.1 µM and the TGI [3] was 30.4 µM. For the same compound, the TGI [4] was 21.9 µM, the TGI [5] was 30.6 µM and the TGI [6] was 25 µM. The TGI [7] was 36 µM, the TGI [8] was 27.9 µM and the TGI [9] was 29.5 µM. The TGI [10] was 27.3 µM.
For `OCC(O)C1OC2CC1Nc1ccccc1N2` (configuration not stated), the TGI [1] was > 100 µM, the TGI [2] was > 100 µM and the TGI [3] was > 100 µM. The TGI [4] was > 100 µM, the TGI [5] was > 100 µM and the TGI [6] was > 100 µM. The TGI [7] was > 100 µM, the TGI [8] was > 100 µM and the TGI [9] was > 100 µM. The TGI [10] was > 100 µM.
In the case of `Cc1cccc2nc3cccc(C(=O)NCCC[N+](C)(CCCNC(=O)c4cccc5nc6cccc(C)c6nc45)Cc4c([N+](=O)[O-])ncn4C)c3nc12`, the GI50 [1] is reported as 8.19 µM, the TGI [1] is reported as > 1100 µM and the TGI [2] is reported as 790 µM. For the same compound, the TGI [3] was > 1100 µM, the TGI [4] was 18.8 µM and the GI50 [5] was 26.2 µM. For the same compound, the TGI [5] was 432 µM, the GI50 [6] was 370 µM and the TGI [6] was > 1100 µM. For the same compound, the GI50 [7] was > 1100 µM, the TGI [7] was > 1100 µM and the GI50 [8] was 49.3 µM. The TGI [8] was > 1100 µM, the GI50 [9] was 18.2 µM and the TGI [9] was > 1100 µM. For the same compound, the GI50 [10] was 63 µM and the TGI [10] was > 1100 µM.
`COC(=O)/C=C\C(C#N)(C#N)N=Cc1ccc(C)s1` showed a TGI [1] of 33.6 µM, a TGI [2] of 32.9 µM and a TGI [3] of 2.65 µM. It also gave a TGI [4] of 3.19 µM, a TGI [5] of 3.09 µM and a TGI [6] of 6.69 µM. For the same compound, the TGI [7] was 28.2 µM, the TGI [8] was 2.14 µM and the TGI [9] was 28.8 µM. It also gave a TGI [10] of 7.71 µM.
With `CC(NC1=NCCO1)c1cccc([N+](=O)[O-])c1` (configuration not stated) the TGI [1] was > 100 µM, the TGI [2] was > 100 µM and the TGI [3] was > 100 µM. For the same compound, the TGI [4] was > 100 µM, the TGI [5] was > 100 µM and the TGI [6] was > 100 µM. For the same compound, the TGI [7] was > 100 µM, the TGI [8] was > 100 µM and the TGI [9] was > 100 µM. For the same compound, the TGI [10] was > 100 µM.
`Cc1cc(=O)n2nc(CSc3nnc(N)s3)sc2n1` was tested, and the TGI [1] was > 100 µM, the TGI [2] was > 100 µM and the TGI [3] was > 100 µM. The TGI [4] was > 100 µM, the TGI [5] was > 100 µM and the TGI [6] was > 100 µM. The TGI [7] was > 100 µM, the TGI [8] was > 100 µM and the TGI [9] was > 100 µM. For the same compound, the TGI [10] was > 100 µM.
With `O=C(CN1CCCCC1)c1ccc2c(c1)Sc1ccccc1O2` the TGI [1] was 29.1 µM, the TGI [2] was 37 µM and the TGI [3] was 35 µM. It also gave a TGI [4] of 40.3 µM, a TGI [5] of 33.4 µM and a TGI [6] of 27.9 µM. It also gave a TGI [7] of 29.6 µM, a TGI [8] of 39.1 µM and a TGI [9] of 39.6 µM. It also gave a TGI [10] of 39.6 µM.
For `Nc1ccccc1NC(=O)CCCCCCC(=O)Nc1ccc2c(c1)/C(=C/c1ccc[nH]1)C(=O)N2`, the GI50 [1] was > 100 µM, the TGI [1] was > 100 µM and the GI50 [2] was > 100 µM. For the same compound, the TGI [2] was > 100 µM, the GI50 [3] was 6.13 µM and the TGI [3] was > 100 µM. The GI50 [4] was > 100 µM, the TGI [4] was > 100 µM and the GI50 [5] was 6.2 µM. For the same compound, the TGI [5] was > 100 µM, the GI50 [6] was > 100 µM and the TGI [6] was > 100 µM. For the same compound, the GI50 [7] was 6.72 µM, the TGI [7] was > 100 µM and the GI50 [8] was 40.8 µM. For the same compound, the TGI [8] was > 100 µM, the GI50 [9] was 1.08 µM and the TGI [9] was > 100 µM. The GI50 [10] was > 100 µM and the TGI [10] was > 100 µM.
`CCOC(=O)C1=C(C)C(C(=O)OC)/C(=C/c2cccc3cccnc23)C1=O` (configuration not stated) was tested, and the TGI [1] was > 10 µM, the TGI [2] was > 10 µM and the TGI [3] was > 10 µM. The TGI [4] was > 10 µM, the TGI [5] was > 10 µM and the TGI [6] was > 10 µM. The TGI [7] was > 10 µM, the TGI [8] was > 10 µM and the TGI [9] was > 10 µM. The TGI [10] was > 10 µM.
In the case of `N#Cc1c(N2CCCC2)ncn(Cc2ccccc2)c1=S`, the TGI [1] is reported as > 100 µM, the TGI [2] is reported as > 100 µM and the TGI [3] is reported as > 100 µM. The TGI [4] was > 100 µM, the TGI [5] was > 100 µM and the TGI [6] was > 100 µM. The TGI [7] was > 100 µM, the TGI [8] was > 100 µM and the TGI [9] was > 100 µM. The TGI [10] was > 100 µM.
